Legend:
[1] = tested on: E. coli BL21(DE3) strain containing the plasmid pTac-5′UTR-Sgr_rppA; experiment: RppA malonyl-CoA biosensor characterization with cerulenin in E. coli; assay type: cell-based
Protocol: After construction of a malonyl-CoA biosensor based on S. griseus RppA, the following experiment was performed in order to examine the applicability of the biosensor. First, the signal of the RppA malonyl-CoA biosensor was defined as the absorbance of culture supernatant at 340 nm (FIG. 3D). Generally, for characterizing a biosensor, different concentrations of a target compound has to be added to examine whether an increased signal occur. However, because malonyl-CoA is a substance that cannot pass through the cell membrane, adding malonyl-CoA to medium is meaningless. Thus, cerulenin (Sigma-aldrich, USA) known to block fatty acid biosynthetic pathways was used to indirectly characterize the biosensor (Omura S (1976), Bacteriol Rev 40:681-697.). Cerulenin blocks fatty acid biosynthetic pathways, and thus leads to the accumulation of malonyl-CoA, a fatty acid precursor. Thus, the concentration of malonyl-CoA in E. coli according to addition of different concentrations of cerulenin as described in previous studies was measured (Xu P, Li L, Zhang F, Stephanopoulos G, Koffas M (2014), Proc Natl Acad Sci USA 111:11299-11304). […] The inoculated cells were cultured in an incubator at 30° C. and 220 rpm for 16 hours, and then the growth (OD600) of the cells and the absorbance at 340 nm of the culture supernatant were measured. […]

[2] = tested on: E. coli BL21(DE3) strains expressing AaOKS, AaPKS4 and AaPKS5; experiment: AaOKS, AaPKS4 and AaPKS5 malonyl-CoA biosensor experiments using cerulenin; assay type: cell-based; details: different concentrations of cerulenin added to the medium
[3] = tested on: P. putida pBBR1-rppA strain; experiment: RppA malonyl-CoA biosensor characterization with cerulenin in P. putida; assay type: cell-based, Pseudomonas putida; details: MR-MOPS medium, increasing cerulenin concentration
[4] = tested on: C. glutamicum pCES-His-rppA strain; experiment: RppA malonyl-CoA biosensor characterization with cerulenin in C. glutamicum; assay type: cell-based, Corynebacterium glutamicum; details: increasing cerulenin concentration

C/C=C/C/C=C/CCC(=O)[C@H]1O[C@H]1C(N)=O [cerulenin]
normalized signal (absorbance of culture supernatant at 340 nm) ([1]; cerulenin 0, 5, 10, 15, 20, 25, 50, and 100 μM, 16 hours, 30° C., compared to the strain that does not express RppA): obviously increased as the concentration of cerulenin increased
normalized production of flaviolin ([1]; increasing cerulenin concentration, also observed by the naked eyes): increased with increasing cerulenin concentration
signal (absorbance at 300 nm of the culture supernatant) [2]: signal generated from each strain increased as the intracellular malonyl-CoA concentration increased
normalized production of flaviolin [3]: increased as the cerulenin concentration in the corresponding strain increased
normalized signal [3]: increased as the cerulenin concentration in the corresponding strain increased
normalized production of flaviolin [4]: increased as the cerulenin concentration in the corresponding strain increased
normalized signal [4]: increased as the cerulenin concentration in the corresponding strain increased
